From the supplement of paper PMC10307832

Columns and labels:
Experiment in all cases: relative viability (nuclei count vs DMSO), 5 days (fraction); higher = more cells survive
201T = system: 201T
Summary of the method: (§1)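 Lung cancer cell lines in 1536-well plates were dosed by pin tool the day after seeding, either with one drug alone or with a fixed anchor-drug dose plus five library-drug doses (not always all listed) in √10 steps. After 5 days, cells were fixed and their nuclei stained in one step (final 0.05% Triton X-100, 1% formaldehyde, 1 ug/ml Hoechst), then counted on 4× images. Relative viability is the nuclei count in treated wells divided by that in vehicle wells. Values are medians of duplicate plates.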

BEN = system: BEN
Summary of the method: as §1

COR-L 105 = system: COR-L 105
Summary of the method: as §1

COR-L23 = system: COR-L23
Summary of the method: as §1

EKVX = system: EKVX
Summary of the method: as §1

HARA = system: HARA
Summary of the method: as §1

HCC-15 = system: HCC-15
Summary of the method: as §1

HCC-366 = system: HCC-366
Summary of the method: as §1

HCC-78 = system: HCC-78
Summary of the method: as §1

HCC-827 = system: HCC-827
Summary of the method: as §1

LC-2-ad = system: LC-2-ad
Summary of the method: as §1

LU99A = system: LU99A
Summary of the method: as §1

LXF-289 = system: LXF-289
Summary of the method: as §1

NCI-H1734 = system: NCI-H1734
Summary of the method: as §1

NCI-H1755 = system: NCI-H1755
Summary of the method: as §1

NCI-H1944 = system: NCI-H1944
Summary of the method: as §1

NCI-H1975 = system: NCI-H1975
Summary of the method: as §1

NCI-H1993 = system: NCI-H1993
Summary of the method: as §1

NCI-H3122 = system: NCI-H3122
Summary of the method: as §1

NCI-H596 = system: NCI-H596
Summary of the method: as §1

RERF-LC-KJ = system: RERF-LC-KJ
Summary of the method: as §1

SK-LU-1 = system: SK-LU-1
Summary of the method: as §1

Q: `O=c1[nH]c2ccccc2n1C1CCN(CCCC(c2ccc(F)cc2)c2ccc(F)cc2)CC1` [Pimozide] + Cc1nc(NC(=O)N2CCC[C@H]2C(N)=O)sc1-c1ccnc(C(C)(C)C(F)(F)F)c1 [Alpelisib] (partner 2 µM) was tested. Which relative viability (201T; first compound 0.08 µM) did it give?
A: 0.999

Q: What about the relative viability (201T; first compound 0.253 µM) of the same compound?
A: 1.02

Q: And the relative viability (201T; first compound 0.8 µM)?
A: 1.05

Q: What about the relative viability (201T; first compound 2.53 µM) of the same compound?
A: 1.01

Q: And the relative viability (201T; first compound 8 µM)?
A: 0.921

Q: What about the relative viability (BEN; first compound 0.08 µM) of the same compound?
A: 1.08

Q: What about the relative viability (BEN; first compound 0.253 µM) of the same compound?
A: 1.09

Q: And the relative viability (BEN; first compound 0.8 µM)?
A: 0.961

Q: And the relative viability (BEN; first compound 2.53 µM)?
A: 0.937

Q: And the relative viability (BEN; first compound 8 µM)?
A: 1.06

Q: And the relative viability (COR-L 105; first compound 0.253 µM)?
A: 0.854

Q: And the relative viability (COR-L 105; first compound 0.8 µM)?
A: 0.872

Q: And the relative viability (COR-L 105; first compound 2.53 µM)?
A: 0.802

Q: What about the relative viability (COR-L 105; first compound 8 µM) of the same compound?
A: 0.608

Q: And the relative viability (COR-L23; first compound 0.08 µM)?
A: 0.783

Q: What about the relative viability (COR-L23; first compound 0.253 µM) of the same compound?
A: 0.862

Q: And the relative viability (COR-L23; first compound 0.8 µM)?
A: 0.763

Q: What about the relative viability (COR-L23; first compound 2.53 µM) of the same compound?
A: 0.74

Q: And the relative viability (COR-L23; first compound 8 µM)?
A: 0.695

Q: And the relative viability (EKVX; first compound 0.253 µM)?
A: 0.806

Q: And the relative viability (EKVX; first compound 0.8 µM)?
A: 0.934

Q: What about the relative viability (EKVX; first compound 2.53 µM) of the same compound?
A: 0.853

Q: What about the relative viability (EKVX; first compound 8 µM) of the same compound?
A: 0.856

Q: What about the relative viability (HARA; first compound 0.08 µM) of the same compound?
A: 0.718

Q: What about the relative viability (HARA; first compound 0.253 µM) of the same compound?
A: 0.829

Q: And the relative viability (HARA; first compound 0.8 µM)?
A: 0.565

Q: What about the relative viability (HARA; first compound 2.53 µM) of the same compound?
A: 0.675

Q: What about the relative viability (HARA; first compound 8 µM) of the same compound?
A: 0.728

Q: And the relative viability (HCC-15; first compound 0.08 µM)?
A: 0.913

Q: And the relative viability (HCC-15; first compound 0.253 µM)?
A: 0.91

Q: And the relative viability (HCC-15; first compound 0.8 µM)?
A: 0.832

Q: And the relative viability (HCC-15; first compound 2.53 µM)?
A: 0.782

Q: What about the relative viability (HCC-15; first compound 8 µM) of the same compound?
A: 0.769

Q: What about the relative viability (HCC-366; first compound 0.08 µM) of the same compound?
A: 0.354

Q: What about the relative viability (HCC-366; first compound 0.253 µM) of the same compound?
A: 0.381

Q: And the relative viability (HCC-366; first compound 0.8 µM)?
A: 0.406

Q: What about the relative viability (HCC-366; first compound 2.53 µM) of the same compound?
A: 0.425

Q: What about the relative viability (HCC-366; first compound 8 µM) of the same compound?
A: 0.518

Q: What about the relative viability (HCC-78; first compound 0.08 µM) of the same compound?
A: 0.406

Q: What about the relative viability (HCC-78; first compound 0.253 µM) of the same compound?
A: 0.366

Q: And the relative viability (HCC-78; first compound 0.8 µM)?
A: 0.294

Q: What about the relative viability (HCC-78; first compound 2.53 µM) of the same compound?
A: 0.293

Q: And the relative viability (HCC-78; first compound 8 µM)?
A: 0.329

Q: What about the relative viability (HCC-827; first compound 0.253 µM) of the same compound?
A: 0.92

Q: What about the relative viability (HCC-827; first compound 0.8 µM) of the same compound?
A: 0.956

Q: And the relative viability (HCC-827; first compound 2.53 µM)?
A: 0.95

Q: What about the relative viability (HCC-827; first compound 8 µM) of the same compound?
A: 1

Q: And the relative viability (LC-2-ad; first compound 0.08 µM)?
A: 0.762

Q: And the relative viability (LC-2-ad; first compound 0.253 µM)?
A: 0.847

Q: What about the relative viability (LC-2-ad; first compound 0.8 µM) of the same compound?
A: 0.934

Q: What about the relative viability (LC-2-ad; first compound 2.53 µM) of the same compound?
A: 0.879

Q: And the relative viability (LC-2-ad; first compound 8 µM)?
A: 0.776

Q: And the relative viability (LU99A; first compound 0.08 µM)?
A: 0.397

Q: And the relative viability (LU99A; first compound 0.253 µM)?
A: 0.424

Q: What about the relative viability (LU99A; first compound 0.8 µM) of the same compound?
A: 0.42

Q: And the relative viability (LU99A; first compound 2.53 µM)?
A: 0.484

Q: And the relative viability (LU99A; first compound 8 µM)?
A: 0.477

Q: And the relative viability (LXF-289; first compound 0.08 µM)?
A: 0.97

Q: And the relative viability (LXF-289; first compound 0.253 µM)?
A: 0.955

Q: And the relative viability (LXF-289; first compound 0.8 µM)?
A: 1.01

Q: And the relative viability (LXF-289; first compound 2.53 µM)?
A: 1.02

Q: And the relative viability (LXF-289; first compound 8 µM)?
A: 0.945

Q: What about the relative viability (NCI-H1734; first compound 0.08 µM) of the same compound?
A: 0.675

Q: What about the relative viability (NCI-H1734; first compound 0.253 µM) of the same compound?
A: 0.664

Q: What about the relative viability (NCI-H1734; first compound 0.8 µM) of the same compound?
A: 0.68

Q: What about the relative viability (NCI-H1734; first compound 2.53 µM) of the same compound?
A: 0.744

Q: What about the relative viability (NCI-H1734; first compound 8 µM) of the same compound?
A: 0.769

Q: What about the relative viability (NCI-H1755; first compound 0.08 µM) of the same compound?
A: 0.918

Q: What about the relative viability (NCI-H1755; first compound 0.253 µM) of the same compound?
A: 0.885

Q: And the relative viability (NCI-H1755; first compound 0.8 µM)?
A: 0.87

Q: And the relative viability (NCI-H1755; first compound 2.53 µM)?
A: 0.786

Q: What about the relative viability (NCI-H1755; first compound 8 µM) of the same compound?
A: 0.727

Q: And the relative viability (NCI-H1944; first compound 0.08 µM)?
A: 0.654

Q: And the relative viability (NCI-H1944; first compound 0.253 µM)?
A: 0.817

Q: And the relative viability (NCI-H1944; first compound 0.8 µM)?
A: 0.815

Q: What about the relative viability (NCI-H1944; first compound 2.53 µM) of the same compound?
A: 0.824

Q: What about the relative viability (NCI-H1944; first compound 8 µM) of the same compound?
A: 0.81

Q: What about the relative viability (NCI-H1975; first compound 0.08 µM) of the same compound?
A: 0.64

Q: What about the relative viability (NCI-H1975; first compound 0.253 µM) of the same compound?
A: 0.715

Q: And the relative viability (NCI-H1975; first compound 0.8 µM)?
A: 0.606

Q: What about the relative viability (NCI-H1975; first compound 2.53 µM) of the same compound?
A: 0.602

Q: And the relative viability (NCI-H1975; first compound 8 µM)?
A: 0.535

Q: What about the relative viability (NCI-H1993; first compound 0.08 µM) of the same compound?
A: 0.707

Q: And the relative viability (NCI-H1993; first compound 0.253 µM)?
A: 0.648

Q: What about the relative viability (NCI-H1993; first compound 0.8 µM) of the same compound?
A: 0.716

Q: And the relative viability (NCI-H1993; first compound 2.53 µM)?
A: 0.734

Q: And the relative viability (NCI-H1993; first compound 8 µM)?
A: 0.669

Q: And the relative viability (NCI-H3122; first compound 0.08 µM)?
A: 0.833

Q: And the relative viability (NCI-H3122; first compound 0.253 µM)?
A: 0.784

Q: And the relative viability (NCI-H3122; first compound 0.8 µM)?
A: 0.784

Q: What about the relative viability (NCI-H3122; first compound 2.53 µM) of the same compound?
A: 0.784

Q: And the relative viability (NCI-H3122; first compound 8 µM)?
A: 0.795

Q: And the relative viability (NCI-H596; first compound 0.08 µM)?
A: 0.481

Q: And the relative viability (NCI-H596; first compound 0.253 µM)?
A: 0.476

Q: And the relative viability (NCI-H596; first compound 0.8 µM)?
A: 0.374

Q: And the relative viability (NCI-H596; first compound 2.53 µM)?
A: 0.481

Q: What about the relative viability (NCI-H596; first compound 8 µM) of the same compound?
A: 0.392

Q: And the relative viability (RERF-LC-KJ; first compound 0.08 µM)?
A: 0.693

Q: What about the relative viability (RERF-LC-KJ; first compound 0.253 µM) of the same compound?
A: 0.724

Q: And the relative viability (RERF-LC-KJ; first compound 0.8 µM)?
A: 0.807

Q: And the relative viability (RERF-LC-KJ; first compound 2.53 µM)?
A: 0.841

Q: And the relative viability (RERF-LC-KJ; first compound 8 µM)?
A: 0.711

Q: What about the relative viability (SK-LU-1; first compound 0.08 µM) of the same compound?
A: 0.961

Q: What about the relative viability (SK-LU-1; first compound 0.253 µM) of the same compound?
A: 0.986

Q: And the relative viability (SK-LU-1; first compound 0.8 µM)?
A: 0.926

Q: What about the relative viability (SK-LU-1; first compound 2.53 µM) of the same compound?
A: 0.719

Q: What about the relative viability (SK-LU-1; first compound 8 µM) of the same compound?
A: 0.649
